Experimental data reported in PMC10233829 (ACS Omega, 2023).
Converted amounts (≈) assume the structure as drawn.

Assays:
[1] = test system: S. epidermidis ATCC 12228; test: MIC, twofold microdilution, standard strain; format: cell-based; details: Staphylococcus epidermidis, ATCC12228, 18 h
[2] = test system: clinical bacterial strains; test: MIC, clinical isolates as groups of strains; format: cell-based; details: clinical strains; read-out: MIC against selected E. coli and E. cloacae strains
E. coli 951 = test: MIC, twofold microdilution, clinical strain; format: cell-based; details: Escherichia coli, 18 h
P. aeruginosa 37 = test: MIC, twofold microdilution, clinical strain; format: cell-based; details: Pseudomonas aeruginosa, 18 h
S. pasteuri KR 4358 = test: MIC, twofold microdilution, clinical strain; format: cell-based; details: Staphylococcus pasteuri, KR4358, 18 h
S. aureus ATCC 25923 = test: MIC, twofold microdilution, standard strain; format: cell-based; details: Staphylococcus aureus, ATCC25923, 18 h
S. aureus NCTC 4163 = test: MIC, twofold microdilution, standard strain; format: cell-based; details: Staphylococcus aureus, NCTC4163, 18 h
S. aureus T5591 = test: MIC, twofold microdilution, clinical strain; format: cell-based, Staphylococcus aureus; details: Staphylococcus aureus, T5591, 18 h
P. aeruginosa 659 = test: MIC, twofold microdilution, clinical strain; format: cell-based; details: Pseudomonas aeruginosa, 18 h
S. aureus ATCC 6538 = test: MIC, twofold microdilution, standard strain; format: cell-based, Staphylococcus aureus; details: Staphylococcus aureus, ATCC6538; standard strain, 18 h
S. aureus ATCC 29213 = test: MIC, twofold microdilution, standard strain; format: cell-based; details: Staphylococcus aureus, ATCC29213, 18 h
S. epidermidis 4341 = test: MIC, twofold microdilution, clinical strain; format: cell-based; details: Staphylococcus epidermidis, 18 h
PC3 cells = test: MTT assay, cytotoxic activity; format: cell-based, human; details: Homo sapiens, PC-3, 72 h, MTT, 72 h
Method: Metastatic prostate cancer (PC3) and human immortal keratinocyte (HaCaT) cell lines were purchased from the American Type Culture Collection (ATCC, Rockville, MD, USA) and cultured in MEM (minimal essential medium, Thermo Sci, USA), RPMI 1640 (Roswell Park Memorial Institute, Biowest SAS, France), and DMEM (Dulbecco’s Modified Eagle’s Medium, Biowest SAS, France). Cells were seeded in 6 mL medium in a tissue culture flask (50 mL) in a 37 °C/5% CO2 humidified incubator. […] MTT analysis was performed according to a previous study.[59] Untreated cells were used as controls. Cell absorbance results were inserted into the formula for the relative MTT level (%). It allows to calculate the viability of cells under the influence of the tested compounds. Cell viability was expressed as the percentage of MTT reduction in cells treated with tested compounds compared to the control sample. The relative MTT level was calculated using the formula [100%] = A/B × 100% where A—the test sample absorbance and B—the control sample absorbance.

E. coli 520 = test: MIC, twofold microdilution, clinical strain; format: cell-based; details: Escherichia coli, 18 h
[3] = test system: S. epidermidis ATCC 35984; test: MIC, twofold microdilution, standard strain; format: cell-based; details: Staphylococcus epidermidis, ATCC35984, 18 h
[4] = MTT assay, cytotoxic activity; format: cell-based; details: human, HaCaT cells (immortal keratinocytes); MTT, 72 h, normal cell line; read-out: IC50 HaCaT
Method: Cells were seeded in 6 mL medium in a tissue culture flask (50 mL) in a 37 °C/5% CO2 humidified incubator. […] MTT analysis was performed according to a previous study.[59] Untreated cells were used as controls. Cell absorbance results were inserted into the formula for the relative MTT level (%). It allows to calculate the viability of cells under the influence of the tested compounds. Cell viability was expressed as the percentage of MTT reduction in cells treated with tested compounds compared to the control sample. The relative MTT level was calculated using the formula [100%] = A/B × 100% where A—the test sample absorbance and B—the control sample absorbance.

M. tuberculosis Spec 210 = test: microbe, parasite or virus in culture; format: cell-based, Mycobacterium tuberculosis; details: M. tuberculosis Spec. 210
S. epidermidis KR4243/1 = test: MIC, twofold microdilution, clinical strain; format: cell-based; details: Staphylococcus epidermidis, 18 h
M. tuberculosis H37Rv = test: Tuberculostatic activity, Microplate Alamar Blue Assay (MIC); format: cell-based, Mycobacterium tuberculosis; details: Mycobacterium tuberculosis, H37RV; MABA; read-out: MIC M. tuberculosis H37Rv
S. epidermidis 5253 = test: MIC, twofold microdilution, clinical strain; format: cell-based, Staphylococcus epidermidis; details: Staphylococcus epidermidis, 5253, 18 h
S. aureus 5595 = test: MIC, twofold microdilution, clinical strain; format: cell-based; details: Staphylococcus aureus, 18 h
S. aureus T5595 = test: MIC, twofold microdilution, clinical strain; format: cell-based, Staphylococcus aureus; details: Staphylococcus aureus, T5595, 18 h
S. aureus 180 = test: MIC, twofold microdilution, clinical strain; format: cell-based; details: Staphylococcus aureus, 18 h
E. coli ATCC 25922 = test: MIC, twofold microdilution, standard strain; format: cell-based, Escherichia coli; details: Escherichia coli, ATCC25922; standard strain, 18 h
E. cloacae 8 = test: MIC, twofold microdilution, clinical strain; format: cell-based, Escherichia cloacae; details: Enterobacter cloacae, 8; clinical strain, 18 h
E. coli 600 = test: MIC, twofold microdilution, clinical strain; format: cell-based, Escherichia coli; details: Escherichia coli, 600, 18 h
P. aeruginosa ATCC 15442 = test: MIC, twofold microdilution, standard strain; format: cell-based, Pseudomonas aeruginosa; details: Pseudomonas aeruginosa, ATCC15442; standard strain, 18 h
K. pneumoniae 28 = test: MIC, twofold microdilution, clinical strain; format: cell-based; details: Klebsiella pneumoniae, 18 h
K. pneumoniae 510 = test: MIC, twofold microdilution, clinical strain; format: cell-based, Klebsiella pneumoniae; details: Klebsiella pneumoniae, 510; clinical strain, 18 h
[5] = test system: M. tuberculosis Spec. 192; test: Tuberculostatic activity, Microplate Alamar Blue Assay (MIC); format: cell-based; details: Mycobacterium tuberculosis, MABA, read-out: MIC M. tuberculosis Spec. 192 (sensitive to tuberculostatics)

SMILES	MIC [1] [µg/mL]	MIC (E. coli 951) [µg/mL]	MIC (P. aeruginosa 37) [µg/mL]	MIC (S. pasteuri KR 4358) [µg/mL]	MIC (S. aureus ATCC 25923) [µg/mL]	MIC (S. aureus NCTC 4163) [µg/mL]	MIC (S. aureus T5591) [µg/mL]	MIC (P. aeruginosa 659) [µg/mL]	MIC (S. aureus ATCC 6538) [µg/mL]	MIC (S. aureus ATCC 29213) [µg/mL]	MIC (S. epidermidis 4341) [µg/mL]	IC50 (PC3 cells) [µM]	MIC (E. coli 520) [µg/mL]	MIC [3] [µg/mL]	IC50 at 72 h [4] [µM]	fold more effective than the reference tuberculostatics (M. tuberculosis Spec 210)	MIC (S. epidermidis KR4243/1) [µg/mL]	MIC (M. tuberculosis H37Rv) [µg/mL]	MIC (S. epidermidis 5253) [µg/mL]	MIC (S. aureus 5595) [µg/mL]	other results
O=C(O)c1cn(C2CC2)c2cc(N3CCN(CCCC(=O)N4CCN(c5cc6c(cc5F)c(=O)c(C(=O)O)cn6C5CC5)CC4)CC3)c(F)cc2c1=O [Compound 18, CP–Butyryl–CP Dimer]	1 (≈ 1.37 µM)	6.4 (≈ 8.76 µM)	12.8 (≈ 17.5 µM)	3.2 (≈ 4.38 µM)	4 (≈ 5.47 µM)	2 (≈ 2.74 µM)	6.4 (≈ 8.76 µM)	> 25.6	2 (≈ 2.74 µM)	4 (≈ 5.47 µM)	> 25.6	> 100	1.6 (≈ 2.19 µM)	16 (≈ 21.9 µM)	92.2 ± 8.7	2–8 fold	3.2 (≈ 4.38 µM)	8 (≈ 10.9 µM)	> 25.6	6.4 (≈ 8.76 µM)	MIC [2]: 0.1 to 0.8 µg/mL (≈ 0.137 to 1.09 µM); MIC (S. aureus T5595): 6.4 µg/mL (≈ 8.76 µM); MIC (S. aureus 180): 6.4 µg/mL (≈ 8.76 µM); MIC (E. coli ATCC 25922): 16 µg/mL (≈ 21.9 µM); MIC (E. cloacae 8): 0.8 µg/mL (≈ 1.09 µM); MIC (E. coli 600): 0.4 µg/mL (≈ 0.547 µM); MIC (P. aeruginosa ATCC 15442): 4 µg/mL (≈ 5.47 µM); MIC (K. pneumoniae 28): > 25.6 µg/mL; MIC (K. pneumoniae 510): > 25.6 µg/mL; MIC [5]: 16 µg/mL (≈ 21.9 µM)
O=C(O)c1cn(C2CC2)c2cc(N3CCN(C(=O)CCCCCCCCCCBr)CC3)c(F)cc2c1=O [Compound 13, 7-[4-(11-Bromoundekanoyl)-piperazin-1-yl]-1-cyclopropyl-6-fluoro-4-oxo-1,4-dihydro-quinoline-3-carboxylic Acid]	12.8 (≈ 22.1 µM)	> 25.6	> 25.6	> 25.6	12.8 (≈ 22.1 µM)	6.4 (≈ 11.1 µM)	> 25.6	> 25.6	12.8 (≈ 22.1 µM)	12.8 (≈ 22.1 µM)	> 25.6	33.7 ± 8.2	> 25.6	12.8 (≈ 22.1 µM)	93.4 ± 10.1	8–32 fold	> 25.6	2 (≈ 3.46 µM)	> 25.6	> 25.6	MIC (S. aureus T5595): > 25.6 µg/mL; MIC (S. aureus 180): > 25.6 µg/mL; MIC (E. coli ATCC 25922): 25.6 µg/mL (≈ 44.3 µM); MIC (E. cloacae 8): > 25.6 µg/mL; MIC (E. coli 600): > 25.6 µg/mL; MIC (P. aeruginosa ATCC 15442): > 25.6 µg/mL; MIC (K. pneumoniae 28): > 25.6 µg/mL; MIC (K. pneumoniae 510): > 25.6 µg/mL; MIC [5]: 4 µg/mL (≈ 6.91 µM)
